In this experiment the target is T1, androgen receptor (Homo sapiens, UniProt P10275).
T1 construct: endogenous in cells; host or cells: VCaP
T1 sequence (P10275 1-920): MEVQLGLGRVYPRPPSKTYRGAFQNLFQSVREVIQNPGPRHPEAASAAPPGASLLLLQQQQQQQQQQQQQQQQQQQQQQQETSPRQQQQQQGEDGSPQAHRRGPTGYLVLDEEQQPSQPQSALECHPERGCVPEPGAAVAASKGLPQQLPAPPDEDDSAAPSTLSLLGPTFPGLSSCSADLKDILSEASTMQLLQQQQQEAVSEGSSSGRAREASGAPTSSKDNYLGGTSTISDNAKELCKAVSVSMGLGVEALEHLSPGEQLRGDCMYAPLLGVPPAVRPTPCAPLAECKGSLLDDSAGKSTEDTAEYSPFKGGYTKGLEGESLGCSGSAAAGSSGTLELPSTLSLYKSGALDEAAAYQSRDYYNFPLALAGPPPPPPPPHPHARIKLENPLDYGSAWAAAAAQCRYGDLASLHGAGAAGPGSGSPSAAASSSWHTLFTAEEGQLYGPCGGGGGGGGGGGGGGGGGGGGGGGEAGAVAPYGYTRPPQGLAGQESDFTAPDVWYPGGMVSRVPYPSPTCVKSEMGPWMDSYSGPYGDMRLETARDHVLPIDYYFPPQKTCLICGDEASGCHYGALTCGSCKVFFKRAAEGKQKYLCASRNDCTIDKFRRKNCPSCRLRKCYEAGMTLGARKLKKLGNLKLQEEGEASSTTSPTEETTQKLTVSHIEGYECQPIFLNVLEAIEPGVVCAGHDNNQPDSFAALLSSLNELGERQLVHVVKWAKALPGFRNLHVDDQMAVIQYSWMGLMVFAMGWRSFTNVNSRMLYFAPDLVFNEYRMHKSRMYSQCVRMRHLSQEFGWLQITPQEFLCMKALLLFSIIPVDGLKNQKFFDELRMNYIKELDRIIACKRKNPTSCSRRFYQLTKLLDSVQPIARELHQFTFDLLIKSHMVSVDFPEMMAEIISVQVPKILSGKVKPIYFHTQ
The experiment can be described thus: AR ELISA assay (PathScan AR Sandwich ELISA), VCaP cells. The conditions noted are these: drug treatment 5 hours. It counts as cell-based. Here is the method: Compounds were evaluated in this assay in LNCaP and/or VCaP cells utilizing similar protocols. The protocols used with VCaP cells are described below. The androgen receptor ELISA assay was performed using PathScan AR Sandwich ELISA (Cell Signaling Catalog #12850) according to the following assay steps:
VCaP cells were seeded at 40,000 cells/well at a volume of 100 μL/well in VCaP assay medium [Phenol red free RPMI (Gibco Cat #11835-030); 5% Charcoal Stripped (Dextran treated) FBS (Omega Scientific, Cat #FB-04); 1% penstrep (Life Technologies, Gibco Cat #: 10378-016)] in Corning 3904 plates. The cells were incubated for a minimum of 3 days. Cells were dosed with PROTACs diluted in 0.01% DMSO and the drug treatment was allowed for 5 hours.
AR ELISA (Cell Signaling) was performed as follows. 1× Cell Signaling Cell lysis buffer was made (Catalogue #9803; comes with the kit). Media from the treated wells is aspirated, and 100 μL 1× cell lysis buffer/well is added. The cells were placed on a shaker for 10 minutes at 4° C. Twenty microliters of lysate was transferred to 100 μl of Diluent in ELISA plate (0.15 μg/ml-[…]). The lysate-diluent mixture was shaken for 30 minutes at 37° C. Allow mouse AR antibody, anti-mouse antibody, TMB, and STOP solution to come to room temperature. The 1×ELISA buffer included in kit was made and loaded in the reservoir. Media from the plates was discarded, the ELISA plate tapped hard on paper towel, and washed 4×200 μl ELISA wash buffer using a plate washer.
One-hundred (100) […] of mouse AR detection Ab was added; the plates were covered and shaken at 37° C. for 1 hour; media was discarded from the plates, the plates were tapped on a paper towel, washed 4× with 200 μL ELISA wash buffer with a plate washer.
One-hundred (100) […] of anti-mouse—HRP conjugated Ab (comes with the kit) was added; the plates were covered and shaken at 37° C. for 30 minutes; the TMB reagent was allowed to come to room temperature; the media was discard from the plate, the plates were tapped on paper towel, washed 4× with 200 μL of ELISA wash buffer; the plates were tapped the plates on paper towel. One-hundred (100) L of TMB was added and the plates shaken for 2 minutes—while watching for color development. One-hundred (100) L Stop solution was added when light blue color developed. Plates were shaken and read at 450 nm.
Progression of prostate cancer in patients treated with anti-androgen therapy usually involves one of several mechanisms of enhanced Androgen Receptor (AR) signaling, including increased intratumoral androgen synthesis, increased AR expression and AR mutations. PROTACs (PROteolysis TArgeting Chimera), which use bi-functional molecules that simultaneously bind a target of choice and an E3 ligase, cause ubiquitination via induced proximity and degradation of the targeted, pathological protein. As opposed to traditional target inhibition, which is a competitive process, degradation is a progressive process. As such, it is less susceptible to increases in endogenous ligand, target expression, or mutations in the target. Thus, this technology appears to be ideal for addressing the mechanisms of AR resistance in patients with prostate cancer. Data was analyzed and plotted using GraphPad Prism software.
In general terms: In an ELISA, binding on a coated surface is turned into a signal by an enzyme label.

SMILES strings stand for the structures. A value given as a limit tells only on which side of the number the result lay.

In turn, `Cc1cc(O[C@H]2C(C)(C)[C@H](NC(=O)c3cnc(N4CCC(CN(C(C)C)[C@H]5C[C@H](Oc6cccc(C(=O)NC7CCC(=O)NC7=O)c6)C5)CC4)cn3)C2(C)C)cc(C)c1C#N` (stereo partly shown) [Compound 15, 5-(4-[[(propan-2-yl)[(1r,3r)-3-[3-[(2,6-dioxopiperidin-3-yl)carbamoyl]phenoxy]cyclobutyl]amino]methyl]piperidin-1-yl)-N-[(1r,3r)-3-(4-cyano-3,5-dimethylphenoxy)-2,2,4,4-tetramethylcyclobutyl]pyrazine-2-carboxamide] registered a DC50 of 1 to 10 nM and a Dmax of less than 50%.
The compound `CC(C)N(CC1CCN(c2cnc(C(=O)N[C@H]3C(C)(C)[C@H](Oc4ccc(C#N)c(Cl)c4)C3(C)C)cn2)CC1)[C@H]1C[C@H](Oc2ccc(C(=O)NC3CCC(=O)NC3=O)cc2)C1` (stereo partly drawn) [Compound 16, N-((1R,3R)-3-(3-chloro-4-cyanophenoxy)-2,2,4,4-tetramethylcyclobutyl)-5-(4-((((1R,3R)-3-(4-((2,6-dioxopiperidin-3-yl)carbamoyl)phenoxy)cyclobutyl)(isopropyl)amino)methyl)piperidin-1-yl)pyrazine-2-carboxamide] returned a DC50 of 1 to 10 nM and a Dmax of less than 50%.

The record behind these values is patent US12427144B2, “Compounds and methods for the targeted degradation of androgen receptor” (Arvinas Operations, Inc., priority 2019, dated 2025).
